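All cell lines were grown in 96-well plates and treated with compound for 48 hours. The concentration for full growth arrest is given as TGI.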
What was measured:
Assay in all cases: NCI-60 cell line screen, 48 h
KM20L2 colon = system: KM20L2 colon
SNB-19 CNS = system: SNB-19 CNS
SF-268 CNS = system: SF-268 CNS
SR leukemia = system: SR leukemia
TK-10 renal = system: TK-10 renal
UO-31 renal = system: UO-31 renal
ACHN renal = system: ACHN renal
OVCAR-5 ovarian = system: OVCAR-5 ovarian
KM12 colon = system: KM12 colon
HCT-15 colon = system: HCT-15 colon
SF-295 CNS = system: SF-295 CNS
COLO 205 colon = system: COLO 205 colon
SK-MEL-28 melanoma = system: SK-MEL-28 melanoma
CCRF-CEM leukemia = system: CCRF-CEM leukemia
HCT-116 colon = system: HCT-116 colon
A549 NSCLC = system: A549 NSCLC
RPMI-8226 leukemia = system: RPMI-8226 leukemia
HL-60(TB) leukemia = system: HL-60(TB) leukemia
MALME-3M melanoma = system: MALME-3M melanoma
UACC-62 melanoma = system: UACC-62 melanoma
SN12C renal = system: SN12C renal
SK-OV-3 ovarian = system: SK-OV-3 ovarian
RXF 393 renal = system: RXF 393 renal
SF-539 CNS = system: SF-539 CNS
NCI-H522 lung = system: NCI-H522 lung
NCI-H460 lung = system: NCI-H460 lung
LXFL 529 NSCLC = system: LXFL 529 NSCLC
K-562 leukemia = system: K-562 leukemia
M14 melanoma = system: M14 melanoma
DMS 273 small cell lung = system: DMS 273 small cell lung
A498 renal = system: A498 renal
NCI-H23 lung = system: NCI-H23 lung
SW-620 colon = system: SW-620 colon
SK-MEL-2 melanoma = system: SK-MEL-2 melanoma
HT29 colon = system: HT29 colon
OVCAR-3 ovarian = system: OVCAR-3 ovarian
RXF-631 renal = system: RXF-631 renal
UACC-257 melanoma = system: UACC-257 melanoma
EKVX NSCLC = system: EKVX NSCLC
M19-MEL melanoma = system: M19-MEL melanoma
786-0 renal = system: 786-0 renal
DMS 114 small cell lung = system: DMS 114 small cell lung
SK-MEL-5 melanoma = system: SK-MEL-5 melanoma
CAKI-1 renal = system: CAKI-1 renal
MOLT-4 leukemia = system: MOLT-4 leukemia
LOX IMVI melanoma = system: LOX IMVI melanoma
SNB-78 CNS = system: SNB-78 CNS
U251 CNS = system: U251 CNS
OVCAR-8 ovarian = system: OVCAR-8 ovarian
OVCAR-4 ovarian = system: OVCAR-4 ovarian
XF 498 CNS = system: XF 498 CNS
SNB-75 CNS = system: SNB-75 CNS
NCI-H226 lung = system: NCI-H226 lung
DLD-1 colon = system: DLD-1 colon
IGROV1 ovarian = system: IGROV1 ovarian
HOP-62 NSCLC = system: HOP-62 NSCLC
HCC-2998 colon = system: HCC-2998 colon

Measured: TGI

O=c1c2ccccc2nc(-c2ccccc2Cl)n1NCC1(O)OCC(O)C(O)C1O (stereo not drawn)
not listed: NCI-H226 lung | DLD-1 colon | IGROV1 ovarian | HOP-62 NSCLC | HCC-2998 colon
> 100 µM: all other assays above

CNS(=O)(=O)NN(C)S(=O)(=O)c1ccc(OC)cc1
not listed: OVCAR-5 ovarian | SK-MEL-28 melanoma | SK-OV-3 ovarian | NCI-H460 lung | OVCAR-3 ovarian | SNB-78 CNS
> 100 µM: all other assays above

Reference: PubChem BioAssay (NCI)
